From patent US20230086985A1, “POLYMERIC COMPOUNDS INCLUDING AN ACCEPTOR DYE AND DONOR LUMINOPHORE” (North Carolina State University, priority 2019, published 2023)
Like-named read-outs stand apart in the source and are kept apart here.

How the values were obtained:
[1] = Absorption and emission spectra of dye-loaded copolymers F1-F3 and dyes D1-D3; assay type: physicochemical
Text: Measurements of Absorption and Emission Spectra. The target dye-loaded copolymers F1-F3 were then subject to investigations of their spectroscopic properties in both organic solvents and aqueous solution. […] Attaching to the 120-kDa amphiphilic copolymer drastically enhances the water solubility of BODIPY D1 and chlorin D2 without strong perturbation on the spectroscopic properties. Emission band for F1 and F2 in water remains the same as the ones measured in organic solutions, showing minimal dye-dye interaction is involved in aqueous solution of F1 and F2 at μM concentration. […] This negative result may be because of the inappropriate size of the copolymer backbone. Polymer larger in size may be required to encapsulate large hydrophobic chromophores like the phthalocyanine D3.
General Methods. All chemicals obtained commercially were used as received unless otherwise noted. Reagent-grade solvents (CH2Cl2, THF, methanol) and HPLC-grade water were used as received. NMR data was measured in a solution of CDCl3 unless otherwise noted. Noncommercial compounds 1, 2, and 4 were prepared following literature procedures. Analytical SEC experiments were performed with PLgel 10000 Å SEC column, eluted with ACS grade THF (stabilized with 400 ppm of BHT) at 35° C. with a flow rate at 1 mL/min. Samples were detected with Agilent 1260 infinity refractive index detector. Absorption spectra were measured on Agilent 8453 and Shimadzu UV1800 instruments using dilute (μmolar) solutions of the compound in UV transparent (e.g., quartz) cuvettes versus a solvent blank at room temperature.

[2] = Fluorescence quantum yield of F1-F3 and D1-D3; assay type: physicochemical
Text: Fluorescence Quantum Yields. […] […] These comparisons indicate the absence of dye-dye quenching resulting from the aggregation for F1 and F2 in μM aqueous solutions. […] Also, a smaller phthalocyanine skeleton (e.g. with methyl instead of heptyl as peripheral groups) may be encapsulated with the current length of copolymer successfully.

[3] = aqueous solution, cited from earlier work
[4] = aqueous solution, Hg(II); cited from earlier work
[5] = solvent CH2Cl2, room temperature
[6] = solvent toluene, room temperature

| SMILES | FWHM [1, 5] | emission maximum wavelength (λem max) [1, 5] | λabs^max [1, 5] | Φf [2, 5] | other results |
| --- | --- | --- | --- | --- | --- |
| Cc1cc(C)c(-c2c3nc(c(-c4ccc(C(=O)NN)cc4)c4ccc(cc5nc(cc6ccc2[nH]6)CC5(C)C)[nH]4)C=C3)c(C)c1 [Compound D2, 5-[4-(N-Aminocarbamoyl)phenyl]-10-Mesityl-18,18-dimethylchlorin] | 342 cm⁻¹ | 641 nm | 640 nm | 0.19 |  |
| CCCCCCCc1cc2c(cc1CCCCCCC)-c1nc-2nc2[nH]c(nc3nc(nc4[nH]c(n1)c1cc(CCCCCCC)c(CCCCCCC)cc41)-c1cc(C#Cc4ccc(CC(=O)NN)cc4)ccc1-3)c1cc(CCCCCCC)c(CCCCCCC)cc21 [Compound D3, 2-[4-(N-Aminocarbamoyl)methylphenylethynyl]-9,10,16,17,23,24-hexaheptylphthalocyanine] |  |  |  |  | FWHM [1, 6]: 1113 cm⁻¹; emission maximum wavelength (λem max) [1, 6]: 707 nm; λabs^max [1, 6]: 702 nm; Φf [2, 6]: 0.68 |
| CCN(CC)c1ccc2c(c1)Oc1cc(N(CC)CC)ccc1C21c2ccccc2C(=O)N1N [Rhodamine-B hydrazide] |  |  |  |  | change in absorption or fluorescence spectra ([3]; Cu(II)): significant change; Cu(II) concentration at which selective detection was highly sensitive and quantitative [3]: 10^−7 M; change in absorption or fluorescence spectra [4]: significant change |
| Cc1cc(C)c(C2=C3C=CC=[N+]3[B-](F)(F)n3cc(C#CCCCCC(=O)NN)cc32)c(C)c1 [Compound D1, 2-[6-(N-Aminocarbamoyl)hex-1-yn-1-yl]-8-mesityl-4,4-difluoro-4-bora-3a,4a-diaza-s-indacene] | 1628 cm⁻¹ | 557 nm | 543 nm | 0.065 |  |
